What was measured:
EP2 receptor = molecular target: T1, EP2 receptor (Homo sapiens, UniProt P43116); assay: cAMP assay (HTRF cAMP HiRange Kit), agonist mode, Example 4; assay type: cell-based; details: Table 2; HEK293T cells; read-out: Receptor activity EC50, EP receptor
T1 construct: expressed in transfected cells
Description: Materials. […] Cyclic AMP assay kit: HTRF cAMP HiRange Kit (CisBio, Cat #62AM6PEC). Cyclic AMP (cAMP) Assay: cAMP assays were performed according to the manufacturer's protocol using CisBio's HTRF cAMP HiRange Kit. […] The reaction was terminated by sequentially adding D2-labeled cAMP and cryptate-labeled anti-cAMP antibody in lysis buffer. […] Data in graphs are represented in Mean±SD. Dose-dependent responses were fitted with sigmoidal dose-response curves allowing variable slopes using GraphPad Prism versions 4, 5 or 6 (Graphpad Prism).

Sprague Dawley rats [1] = assay: Rat intraplantar injection model, thermal pain sensitivity (Example 9); assay type: in vivo, Sprague Dawley rat; details: 1 μg/mL or 100 μg/mL; 15 minutes post-administration
Description: Male Sprague Dawley rats (n=112) were allocated into 14 groups of 8/group. The study was run in 2 cycles, on consecutive days, 7 groups per cycle. Each cycle was composed of a Saline group, PBS group, which served as the control, and also treprostinil at a dose of 100 μg/mL or 1 μg/mL.
(§1) Animals were administered 0.1 mL of test material by subcutaneous injection into the paw pad (Intraplantar injection) at time zero. Animals were subsequently evaluated for their response to mechanical (von Frey filaments) and thermal stimuli, 15 and 90 minutes post-injection. The von Frey test was conducted prior to the thermal test, which followed immediately within minutes for each animal. In addition, clinical observation scoring of the animal's reaction to injection was conducted. FIG. 16 schematically illustrates the study design.
(§2) The sensitivity of animals to a thermal pain stimulus was assessed immediately following the von Frey test. The time until withdrawal of the right-injected leg from a heat source was measured, and the lower (faster) the time of response represents a greater sensitivity to the stimulus. The test was performed 15 and 90 minutes post-Test Item injection.

Sprague Dawley rats [2] = assay: Rat intraplantar injection model, von Frey test (Example 10); assay type: in vivo, Sprague Dawley rat; details: 1 μg/mL or 100 μg/mL; 15 and 90 minutes post-injection
Description: (§3) Male Sprague Dawley rats (n=56) were allocated into 7 groups of 8 animals per group. […] Each group was compared to the phosphate buffer (50-mM phosphate buffer with 50-mM sodium chloride at pH=7.4) treated group, which served as the control (Group 1).
as §1, with “zero. Then, the animals” for “zero. Animals”, “conducted.” for “conducted. FIG. 16 schematically illustrates the study design.”
Mechanical pain sensitivity was tested using the von Frey test, which measures the withdrawal force threshold of the animals. The lower the force applied represents a greater sensitivity to the stimulus. The von Frey test was performed 15 and 90 minutes post-test item injection.

Sprague Dawley rats [3] = assay: Rat intraplantar injection model, thermal pain sensitivity (Example 10); assay type: in vivo, Sprague Dawley rat
Description: as §3
as §1, with “zero. Then, the animals” for “zero. Animals”, “conducted.” for “conducted. FIG. 16 schematically illustrates the study design.”
as §2, with “post-test item” for “post-Test Item”

Sprague Dawley rats [4] = assay: Rat intraplantar injection model, clinical observation score (Example 10); assay type: in vivo, Sprague Dawley rat
Description: as §3
as §1, with “zero. Then, the animals” for “zero. Animals”, “conducted.” for “conducted. FIG. 16 schematically illustrates the study design.”
A clinical observation score was assigned by assessing for redness, swelling and paw placement.

Sprague Dawley rats [5] = assay: Clinical observations following subcutaneous injection (Example 12); assay type: in vivo, Sprague Dawley rat; details: 0.1 and 0.3 mg/kg SC; some animals; approximately 4 hours postdosing
Description: (§4) Clinical observations were performed at approximately 6 hours prior to dosing, at the completion of dosing and at approximately 4 hours postdosing.

Sprague Dawley rats [6] = assay: Cardiovascular assessment by radiotelemetry following subcutaneous injection (Example 12); assay type: in vivo, Sprague Dawley rat
Description: as §4

rat = assay: Rat intraplantar injection model, mean clinical score (Example 11); details: each of 15 min and 90 min
Description: FIG. 31 presents mean clinical score of cycle 1 (points). Increased/Higher score indicates more observations of adverse events.
FIG. 32 presents mean clinical score of cycle 2 (points). Increased/Higher score indicates more observations of adverse events.
FIGS. 31 and 32 present mean clinical score for Cycles 1 and 2 respectively.

[7] = 0.1 mg/kg SC (first statement as printed)

T1 sequence (P43116 whole entry): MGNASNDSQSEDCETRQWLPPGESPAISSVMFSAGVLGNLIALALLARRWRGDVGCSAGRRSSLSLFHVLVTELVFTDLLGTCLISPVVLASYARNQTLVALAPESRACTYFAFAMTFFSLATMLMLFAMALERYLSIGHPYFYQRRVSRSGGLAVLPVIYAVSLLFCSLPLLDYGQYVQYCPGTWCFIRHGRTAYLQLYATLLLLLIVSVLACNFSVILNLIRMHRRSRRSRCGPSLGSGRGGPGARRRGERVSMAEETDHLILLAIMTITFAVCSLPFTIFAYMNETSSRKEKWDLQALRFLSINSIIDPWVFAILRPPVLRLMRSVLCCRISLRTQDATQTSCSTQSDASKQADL

EC50 (EP2 receptor): 6.75 nM | von Frey withdrawal force threshold vs phosphate buffer group (Sprague Dawley rats [2]): reduced withdrawal force threshold | mean clinical score (Sprague Dawley rats [4]; 100 μg/mL, each of 15 min and 90 min): non-zero | clinical score vs phosphate buffer treated group (statistically significant increase) (Sprague Dawley rats [4]; both doses, 90 minutes): same effect | clinical observations (Sprague Dawley rats [5]): flushed extremities | mean clinical score of cycle 2 (rat; 1 μg/mL): non-zero | mean clinical score of cycle 1 (rat; 100 μg/mL): non-zero
SMILES: CCCCC[C@H](O)CC[C@@H]1[C@H]2Cc3cccc(OCC(=O)O)c3C[C@H]2C[C@H]1O [Treprostinil]
thermal paw withdrawal time vs PBS treated group (Sprague Dawley rats [1]): statistically significantly faster paw withdrawal time | thermal paw withdrawal time vs phosphate buffer treated group (Sprague Dawley rats [3]; 1 μg/mL or 100 μg/mL, 15 minutes post-administration): statistically significantly faster paw withdrawal time | sensitivity to heat stimulation vs vehicle (phosphate buffer) group (Sprague Dawley rats [3]; 100 μg/mL, 90 minutes post-injection): statistically significantly increased sensitivity | body temperature change (Sprague Dawley rats [6]; 0.000125 mg/kg or 0.00125 mg/kg SC): No significant changes | diastolic blood pressure change (Sprague Dawley rats [6]; 0.03 mg/kg SC): marginally lower | mean blood pressure change (Sprague Dawley rats [6]; 0.03 mg/kg SC): marginally lower | mean blood pressure, time of nadir (Sprague Dawley rats [6]; 0.03 mg/kg SC): 30 min | systolic blood pressure change (Sprague Dawley rats [6]; 0.03 mg/kg SC): marginally lower | body temperature changes resolved by (Sprague Dawley rats [6]; 0.1 mg/kg SC): approximately 3 hours | diastolic blood pressure lowering persisted through (Sprague Dawley rats [6]; 0.1 mg/kg SC): 90 min | diastolic blood pressure, time of nadir (Sprague Dawley rats [6]; 0.1 mg/kg SC): 30 min | mean blood pressure lowering persisted through (Sprague Dawley rats [6]; 0.1 mg/kg SC): 90 min | mean blood pressure, time of nadir (Sprague Dawley rats [6]; 0.1 mg/kg SC): 30 min | systolic blood pressure lowering persisted through (Sprague Dawley rats [6]; 0.1 mg/kg SC): 90 min | systolic blood pressure, time of nadir (Sprague Dawley rats [6]; 0.1 mg/kg SC): 30 min | body temperature change (Sprague Dawley rats [6]; [7]): Marginally lower | body temperature change persisted through (Sprague Dawley rats [6]; [7]): approximately 3 hours | body temperature changes resolved by (Sprague Dawley rats [6]; 0.3 mg/kg SC): ~4 h | diastolic blood pressure lowering persisted through (Sprague Dawley rats [6]; 0.3 mg/kg SC): 180 min | diastolic blood pressure, time of nadir (Sprague Dawley rats [6]; 0.3 mg/kg SC): 20 min | mean blood pressure lowering persisted through (Sprague Dawley rats [6]; 0.3 mg/kg SC): 180 min | mean blood pressure, time of nadir (Sprague Dawley rats [6]; 0.3 mg/kg SC): 20 min | systolic blood pressure lowering persisted through (Sprague Dawley rats [6]; 0.3 mg/kg SC): 120 min | systolic blood pressure, time of nadir (Sprague Dawley rats [6]; 0.3 mg/kg SC): 20 min | pulse pressure change (Sprague Dawley rats [6]; 0.3 mg/kg SC, from 20 to 40 minutes postdosing): Marginally lower | body temperature change (Sprague Dawley rats [6]; 0.1 and 0.3 mg/kg SC): Significantly lowered | diastolic blood pressure change (Sprague Dawley rats [6]; 0.1 and 0.3 mg/kg SC): Significantly lower | diastolic blood pressure, earliest time point of lowering (Sprague Dawley rats [6]; 0.1 and 0.3 mg/kg SC): 10 min | mean blood pressure change (Sprague Dawley rats [6]; 0.1 and 0.3 mg/kg SC): Significantly lower | mean blood pressure, earliest time point of lowering (Sprague Dawley rats [6]; 0.1 and 0.3 mg/kg SC): 10 min | systolic blood pressure change (Sprague Dawley rats [6]; 0.1 and 0.3 mg/kg SC): Significantly lower | systolic blood pressure, earliest time point of lowering (Sprague Dawley rats [6]; 0.1 and 0.3 mg/kg SC): 10 min | dose resulting in significantly lower body temperature (Sprague Dawley rats [6]; single SC injection): ≥ 0.030 mg/kg | dose resulting in significantly lower systolic, diastolic, mean arterial blood pressure (Sprague Dawley rats [6]; single SC injection): ≥ 0.1 mg/kg | heart rate change (Sprague Dawley rats [6]; single SC injection, all doses): Higher heart rates | time by which heart rate changes resolved / recovered postdosing (Sprague Dawley rats [6]; single SC injection, all groups): approximately 5 hours | diastolic blood pressure change (Sprague Dawley rats [6]; ≤0.030 mg/kg SC): No meaningful changes | mean blood pressure change (Sprague Dawley rats [6]; ≤0.030 mg/kg SC): No meaningful changes | systolic blood pressure change (Sprague Dawley rats [6]; ≤0.030 mg/kg SC): No meaningful changes
